ChEMBL document CHEMBL3046921, “Synthesis of 3,5-disubstituted isoxazolines as protein tyrosine phosphatase 1B inhibitors” (Med Chem Res, 2008)

Tests used:
Rattus norvegicus [1] = assay: Antidiabetic activity in albino Rattus norvegicus Sprague-Dawley (rat) streptozotocin-induced diabetic model assessed as reduction of blood glucose level at 100 mg/kg, po after 5 hr; format: functional; set-up: scale not given: the % may be the effect or the level left
[2] = molecular target: T1, Tyrosine-protein phosphatase non-receptor type 1 (Homo sapiens) (UniProt P18031); assay: (§1) Inhibition of PTP1B (unknown origin) using p-nitrophenylphosphate as substrate at 100 uM after 10 min
T1 sequence (whole entry): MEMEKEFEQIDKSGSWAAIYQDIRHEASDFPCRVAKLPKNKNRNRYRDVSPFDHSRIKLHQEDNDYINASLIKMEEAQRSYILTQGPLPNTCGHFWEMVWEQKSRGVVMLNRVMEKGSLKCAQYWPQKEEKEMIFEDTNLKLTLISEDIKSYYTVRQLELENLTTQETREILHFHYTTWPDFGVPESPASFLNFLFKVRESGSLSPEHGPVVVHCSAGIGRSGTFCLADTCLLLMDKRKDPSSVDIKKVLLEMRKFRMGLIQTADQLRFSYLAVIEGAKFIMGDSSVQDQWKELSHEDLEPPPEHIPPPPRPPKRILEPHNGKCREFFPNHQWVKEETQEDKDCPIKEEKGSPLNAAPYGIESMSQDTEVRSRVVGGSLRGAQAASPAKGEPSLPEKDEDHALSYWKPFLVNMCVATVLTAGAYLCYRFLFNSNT

Rattus norvegicus [3] = assay: Antidiabetic activity in albino Rattus norvegicus Sprague-Dawley (rat) streptozotocin-induced diabetic model assessed as reduction of blood glucose level at 100 mg/kg, po after 24 hr; format: functional; set-up: scale not given: the % may be the effect or the level left
[4] = molecular target: T2, Tyrosine-protein phosphatase non-receptor type 1 (Homo sapiens, UniProt P18031); assay: Inhibition of PTP1B (unknown origin) using p-nitrophenylphosphate as substrate after 10 min
T2 sequence (P18031 whole entry): T1 sequence (whole entry)

[5] = molecular target: Tyrosine-protein phosphatase non-receptor type 1 (Homo sapiens) (UniProt P18031); assay: as §1; remark: listed apart in the source

COC(=O)C1C(c2ccc(OC)cc2OC)=NOC1c1ccccc1 (stereo unspecified)
Activity (Rattus norvegicus [1]): 21.6% | inhibition [2]: 46.5% | Activity (Rattus norvegicus [3]): 7.74% | IC50 [4]: 165 µM | Ki [4]: 135 µM

CN(C)C(=N)NC(=N)N [METFORMIN]
Activity (Rattus norvegicus [1]): 23.6% | Activity (Rattus norvegicus [3]): 26.5%

COc1ccc(C2=NOC(c3ccccc3)C2)c(OC(C)=O)c1 (stereo unspecified)
Activity (Rattus norvegicus [1]): 20.5% | inhibition [2]: 28.8% | Activity (Rattus norvegicus [3]): 6.96%

COc1c(C2=NOC(c3ccccc3)C2)ccc2c1C=CC(C)(C)O2 (stereo unspecified)
inhibition [2]: 64.2%

COc1c(C2=NOC(c3ccccc3)C2)ccc2occc12 (stereo unspecified)
inhibition [2]: 80.4% | IC50 [4]: 76 µM

COc1ccc(C2=NOC(c3ccccc3)C2)c(O)c1 (stereo unspecified)
inhibition [2]: 47.1%

COc1ccc(C2CC(c3ccc4occc4c3OC)=NO2)cc1 (stereo unspecified)
inhibition [2]: 79.6% | IC50 [4]: 81 µM

COc1c(C2=NOC(c3ccccn3)C2)ccc2c1C=CC(C)(C)O2 (stereo unspecified)
inhibition [2]: 62.4%

COc1ccc(C2CC(c3ccc(OC)cc3OC)=NO2)cc1 (stereo unspecified)
Activity (Rattus norvegicus [1]): 2.56% | inhibition [2]: 65.8% | Activity (Rattus norvegicus [3]): 12.2% | IC50 [4]: 67 µM | Ki [4]: 48 µM

CC(=O)Oc1ccc(C2=NOC(c3ccccc3)C2)c(OC(C)=O)c1 (stereo unspecified)
Activity (Rattus norvegicus [1]): 23% | inhibition [2]: 91.6% | Activity (Rattus norvegicus [3]): 15%

COc1ccc(C2=NOC(c3ccncc3)C2)c(OC)c1 (stereo unspecified)
inhibition [2]: 11.5% | IC50 [4]: 275 µM | Ki [4]: 150 µM

COc1ccc(C2=NOC(n3ccnc3)C2)c(OC)c1 (stereo unspecified)
Activity (Rattus norvegicus [1]): 22.3% | inhibition [2]: 79.8% | Activity (Rattus norvegicus [3]): 15% | IC50 [4]: 88 µM | Ki [4]: 63 µM

Oc1ccc(C2=NOC(c3ccccc3)C2)c(O)c1 (stereo unspecified)
inhibition [2]: 29.5%

COc1ccc(C2=NOC(c3ccccn3)C2)c(OC)c1 (stereo unspecified)
inhibition [2]: 9.8% | IC50 [4]: 485 µM | Ki [4]: 170 µM

COc1ccc(C2CC(c3ccc4c(c3OC)C=CC(C)(C)O4)=NO2)cc1 (stereo unspecified)
inhibition [2]: 57.7%

SODIUM HYDROXYTRIOXIDOVANADIUM
IC50 [4]: 86.5 µM | Ki [4]: 67 µM

COc1ccc(C2=NOC(c3ccccc3)C2)c(OC)c1 (stereo unspecified)
Activity (Rattus norvegicus [1]): 18% | inhibition [2]: 88.5% | Activity (Rattus norvegicus [3]): 19.7% | IC50 [4]: 69 µM | Ki [4]: 48 µM

SODIUM [sequence]
inhibition [5]: 56.2%
